In patent US8017346B2, “Method of quantifying the G protein-coupled receptor (GPCR)/G protein coupling using a cell membrane array” (Universidad Del Pais Vasco, priority 2005, dated 2011):
Peptide text beside a SMILES is read from it.

System: galanin receptors
Assay: [35S]GTPγS autoradiography on tissue membrane arrays with galanin receptor ligands
Type: biochemical, rat
Conditions: for effect on the action of galnon on [35S]GTPγS fixing: combination with galnon, tissue arrays (FIG. 5); for [35S]GTPγS fixing in the presence of ligand versus baseline: pituitary gland membranes, tissue array (FIG. 4)
From the text: 5 male Sprague Dawley rats (250-275 g) were anesthetized and sacrificed according to the guide approved by the Ethics Committee of the Faculty of Medicine of the University of the Basque Country, following the internationally accepted guidelines (86/609/EEC). The organs and tissue which were to be used in the experiment (pancreas, stomach, small intestine, spleen, heart, lung, liver, testicle, vas deferens, kidney, suprarenal glands, bone marrow and brain: frontal cortex, striatum, brain stem, pituitary gland, olfactory nuclei, hippocampus, hypothalamus, thalamus, colliculus and cerebellum) were then removed. These samples were stored at −70° C. until the experiment was carried out.
The tissue samples (1 g) were homogenized using a teflon-glass homogenizer (10 strokes at 1,500 rpm) in 30 volumes of homogenization buffer [1 mM ethylene glycol-bis(β-aminoethyl)-N,N,N′,N′-tetraacetic acid (EGTA), 3 mM MgCl2, 1 mM dithiothreitol (DTT) and 50 mM Tris-HCl, pH 7.4] supplemented with […] sucrose. The crude homogenate was centrifuged at 3,000×g and at 4° C. for 5 minutes and the resulting supernatant was again centrifuged at 40,000×g for 10 minutes (4° C.). The pellet was washed in 20 volumes of homogenization buffer and re-centrifuged in the same conditions. Aliquots were carried out and stored at −70° C. The protein content was determined according to the Bradford method [Bradford M M., Anal Biochem 1976; 72:248-54] using bovine serum albumin (BSA) as a standard.
1 mg/ml aliquots of each tissue were taken and with this suspension, 1 μl microspots were made on glass supports (slides) which were previously treated with concentrated orthophosphoric acid (85%); to that end, the slides were first washed with acetone and then with anhydrous isopropanol, they were dried and finally submersed in concentrated orthophosphoric acid (85%) for 24 hours, they were washed with distilled water (Millipore) and air-dried. The arrays were frozen at −70° C. until the experiment was carried out.
The slides with tissue sections were allowed to dry for 15 minutes at room temperature. The tissue section were then pre-incubated in assay buffer at pH 7.4 [50 mM Tris-HCl, 3 mM MgCl2, 0.2 mM EGTA, 100 mM NaCl, 3 mU/ml adenosine deaminase] for 20 minutes at room temperature to eliminate, as much as possible, the presence of endogenous neurotransmitters; afterwards, the sections were pre-incubated again in the assay buffer supplemented with guanosine diphosphate (GDP) (2 mM) and DTT (1 mM).
The slides were then incubated for 2 hours at 30° C. in the previous assay buffer, to which the following substances were added according to the different conditions of the experiment:
Baseline: 0.04 nM [^35S] GTPγS
Activated: 0.04 nM [^35S] GTPγS+agonist
Inhibited: 0.04 nM [^35S]GTPγS+agonist+antagonist
Non-specific: 0.04 nM [^35S] GTPγS+10 μM GTPγS
Once this time had elapsed, 2 washings of 15 minutes in the buffer 50 mM Tris-HCl, pH 7.4 at 4° C. were carried out. After the second washing, the sections were submersed in distilled water at 4° C. to eliminate the salts and the slide was dried by means of applying a cold air current.
The slides with the corresponding sections were then exposed to a radiosensitive film (Kodak Biomax MR) which was developed in a manner similar to a photographic film. The labeling was quantified according to the different gray densities at nCi/g of tissue equivalent. To that end, each film was exposed together with the previously calibrated commercial standards (Amersham). The quantification was carried out with microscopic anatomical resolution in a computerized image analysis system, using NIH-image software, of G protein activation.
The following ligands were used to study [^35S] GTPγS fixing in the absence (baseline) and in the presence of galanin receptor ligands: galanin, galnon, gal (2-11), M15 [galanin-(1-13)-substance P-5-11 amide], M35 [galanin-(1-13)-bradykinin-(2,9) amide] and M40 [galanin-(1-13)-[…]amide].

| effect on the action of galnon on [35S]GTPγS fixing | [35S]GTPγS fixing in the presence of ligand versus baseline | Molecule |
| --- | --- | --- |
| antagonized | increase | galanin-(1-13)-bradykinin-(2,9) amide [M35] |
| antagonized | increase | galanin-(1-13)-Pro-Pro-Ala-Leu-Ala-Leu-Ala-Leu-Ala amide [M40] |
| – | increase | gal (2-11): galanin receptor ligand |
| – | increase | galanin-(1-13)-substance P-5-11 amide [M15] |

| Molecule | effect on the action of galnon on [35S]GTPγS fixing | [35S]GTPγS fixing in the presence of ligand versus baseline |
| --- | --- | --- |
| Cc1cc(=O)oc2cc(NC(=O)[C@H](CCCCN)NC(=O)[C@H](CC3CCCCC3)NC(=O)OCC3c4ccccc4-c4ccccc43)ccc12 [galnon] (HELM PEPTIDE1{[O=C(OCC1c2ccccc2-c2ccccc21)[*:2]].[Cha].K.[Cc1cc(=O)oc2cc(N[*:1])ccc12]}$$$$V2.0) | – | increase |
